According to US9265253B2, “Use of macrocyclic picolinamides as fungicides” (DOW AGROSCIENCES LLC, priority 2013, dated 2016):

Experiments:
Type in all cases: in vivo
Cercospora beticola = assay: Leaf Spot of Sugar Beets (CERCBE) disease control; conditions: Cercospora beticola, topical, 24 h, 1 Day Protectant, sugar beet, read-out: Disease Control CERCBE 1 DP
Experimental: Technical grades of materials were dissolved in acetone, which were then mixed with nine volumes of water containing 110 ppm Triton X-100. The fungicide solutions were applied onto wheat seedlings using an automated booth sprayer to run-off. All sprayed plants were allowed to air dry prior to further handling. All fungicides were evaluated using the aforementioned method for their activity vs. all target diseases. Wheat leaf blotch and brown rust activity were also evaluated using track spray applications, in which case the fungicides were formulated as EC formulations, containing 0.1% Trycol 5941 in the spray solutions. Wheat plants (variety Yuma) were grown from seed in a greenhouse in 50% mineral soil/50% soil-less Metro mix until the first leaf was fully emerged, with 7-10 seedlings per pot. These plants were inoculated with an aqueous spore suspension of Septoria tritici either prior to or after fungicide treatments. After inoculation the plants were kept in 100% relative humidity (one day in a dark dew chamber followed by two to three days in a lighted dew chamber at 20° C.) to permit spores to germinate and infect the leaf. The plants were then transferred to a greenhouse set at 20° C. for disease to develop. When disease symptoms were fully expressed on the 1st leaves of untreated plants, infection levels were assessed on a scale of 0 to 100 percent disease severity. Percent disease control was calculated using the ratio of disease severity on treated plants relative to untreated plants. Sugar beet plants (variety HH88) were grown in soil-less Metro mix and trimmed regularly to maintain a uniform plant size prior to test. Plants were inoculated with a spore suspension 24 hr after fungicide treatments. Inoculated plants were kept in a dew chamber at 22° C. for 48 hr then incubated in a greenhouse set at 24° C. under a clear plastic hood with bottom ventilation until disease symptoms were fully expressed. Fungicide formulation, application and disease assessment on the sprayed leaves followed the procedures as described in the Example A.

Rhyncosporium secalis = assay: Barley Scald (RHYNSE) disease control; conditions: Hordeum vulgare, 24 h, 1 Day Protectant, read-out: Disease Control RHYNSE 1 DP
Experimental: Technical grades of materials were dissolved in acetone, which were then mixed with nine volumes of water containing 110 ppm Triton X-100. The fungicide solutions were applied onto wheat seedlings using an automated booth sprayer to run-off. All sprayed plants were allowed to air dry prior to further handling. All fungicides were evaluated using the aforementioned method for their activity vs. all target diseases. Wheat leaf blotch and brown rust activity were also evaluated using track spray applications, in which case the fungicides were formulated as EC formulations, containing 0.1% Trycol 5941 in the spray solutions. Wheat plants (variety Yuma) were grown from seed in a greenhouse in 50% mineral soil/50% soil-less Metro mix until the first leaf was fully emerged, with 7-10 seedlings per pot. These plants were inoculated with an aqueous spore suspension of Septoria tritici either prior to or after fungicide treatments. After inoculation the plants were kept in 100% relative humidity (one day in a dark dew chamber followed by two to three days in a lighted dew chamber at 20° C.) to permit spores to germinate and infect the leaf. The plants were then transferred to a greenhouse set at 20° C. for disease to develop. When disease symptoms were fully expressed on the 1st leaves of untreated plants, infection levels were assessed on a scale of 0 to 100 percent disease severity. Percent disease control was calculated using the ratio of disease severity on treated plants relative to untreated plants. Barley seedlings (variety Harrington) were propagated in soil-less Metro mix, with each pot having 8 to 12 plants, and used in the test when first leaf was fully emerged. Test plants were inoculated by an aqueous spore suspension of Rhyncosporium secalis 24 hr after fungicide treatments. After inoculation the plants were kept in a dew room at 20° C. with 100% relative humidity for 48 hr. The plants were then transferred to a greenhouse set at 20° C. for disease to develop. Fungicide formulation, application and disease assessment on the sprayed leaves followed the procedures as described in the Example A.

[1] = system: Glomerella lagenarium; Anamorph: Colletotrichum lagenarium; assay: Cucumber Anthracnose (COLLLA) disease control; conditions: Colletotrichum orbiculare, topical, 24 h, 1 Day Protectant, read-out: Disease Control COLLLA 1 DP
Experimental: Technical grades of materials were dissolved in acetone, which were then mixed with nine volumes of water containing 110 ppm Triton X-100. The fungicide solutions were applied onto wheat seedlings using an automated booth sprayer to run-off. All sprayed plants were allowed to air dry prior to further handling. All fungicides were evaluated using the aforementioned method for their activity vs. all target diseases. Wheat leaf blotch and brown rust activity were also evaluated using track spray applications, in which case the fungicides were formulated as EC formulations, containing 0.1% Trycol 5941 in the spray solutions. Wheat plants (variety Yuma) were grown from seed in a greenhouse in 50% mineral soil/50% soil-less Metro mix until the first leaf was fully emerged, with 7-10 seedlings per pot. These plants were inoculated with an aqueous spore suspension of Septoria tritici either prior to or after fungicide treatments. After inoculation the plants were kept in 100% relative humidity (one day in a dark dew chamber followed by two to three days in a lighted dew chamber at 20° C.) to permit spores to germinate and infect the leaf. The plants were then transferred to a greenhouse set at 20° C. for disease to develop. When disease symptoms were fully expressed on the 1st leaves of untreated plants, infection levels were assessed on a scale of 0 to 100 percent disease severity. Percent disease control was calculated using the ratio of disease severity on treated plants relative to untreated plants. Cucumber seedlings (variety Bush Pickle) were propagated in soil-less Metro mix, with each pot having one plant, and used in the test when 12 to 14 days old. Test plants were inoculated with an aqueous spore suspension of Colletotrichum lagenarium 24 hr after fungicide treatments. After inoculation the plants were kept in a dew room at 22° C. with 100% relative humidity for 48 hr to permit spores to germinate and infect the leaf. The plants were then transferred to a growth room set at 22° C. for disease to develop. Fungicide formulation, application and disease assessment on the sprayed leaves followed the procedures as described in the Example A.

[2] = system: Magnaporthe grisea; Anamorph: Pyricularia oryzae; assay: whole plant or invertebrate; conditions: Pyricularia oryzae, topical, 24 h, read-out: Disease Control PYRIOR 1 DP

Structure (SMILES) | pest or weed control at 100 ppm (Cercospora beticola) | pest or weed control at 100 ppm (Rhyncosporium secalis) | pest or weed control at 100 ppm [1] | pest or weed control at 100 ppm [2]
CCOCC(=O)OCOc1c(OC)ccnc1C(=O)N[C@H]1CCC[C@H](CCF)[C@@H](OCC(C)C)[C@H](C)OC1=O [Compound F181] | 0 to 80% | 0 to 80% | 80 to 100% | 80 to 100%
CCOCC(=O)OCOc1c(OC)ccnc1C(=O)N[C@H]1CCC[C@H](Cc2ccccc2)[C@@H](OCC(C)C)[C@H](C)OC1=O [Compound F172] | 80 to 100% | 80 to 100% | 80 to 100% | 80 to 100%
CCCO[C@@H]1[C@@H](CCC(C)C)CCC[C@H](NC(=O)c2nccc(OC)c2OC(C)=O)C(=O)O[C@H]1C [Compound F64] | 80 to 100% | 80 to 100% | 80 to 100% | 80 to 100%
